Patent publication US11523607B2, “Sperm storage media comprising MHY 1485 for enhancing sperm quality and function” (UNIVERSIDADE DO PORTO, priority 2017, dated 2022)

Experiments:
Format in all cases: cell-based
Human spermatozoa [1] = assay: Human spermatozoa motility after storage; conditions: 2 μg/mL in Sperm Preparation Medium, 37° C.
Protocol: (§1) FIG. 2—Human spermatozoa motility after storage during 120 minutes at 37° C. Spermatozoa were stored in Sperm Preparation Medium (ORIGIO, Måløv, Denmark) not supplemented (Control) or supplemented with an mTOR activator (MHY 1485). Spermatozoa were also incubated with an mTOR inhibitor (Rapamycin; Rap) as a negative control. Results are presented as mean±standard error of the mean (n=12); Significant results (P<0.05) are indicated as *-vs. Control.
(§2) We evaluated the use of an mTOR activator (MHY 1485) as an additive during sperm storage at 37° C. […] We assessed key sperm quality parameters, namely sperm viability and sperm motility, using standard methods, as described by the guidelines of the World Health Organization, with the supervision of a certified embryologist. We also evaluated the oxidative damages to sperm DNA (DNA fragmentation), proteins (protein carbonylation) and lipids (lipid peroxidation). Sperm DNA fragmentation was assessed using the Halosperm® kit (Halotech DNA SL, Madrid, Spain). Sperm protein carbonylation and lipid peroxidation were evaluated using specific antibodies (ABCAM®, Cambridge, USA) raised against 2,4-dinitrophenol groups and anti-4-hydroxynonenal groups (respectively). […]

Human spermatozoa [2] = assay: Human spermatozoa capacitation after storage; conditions: 2 μg/mL in Sperm Preparation Medium, 37° C.
Protocol: as §1, with “4—Human” for “2—Human”, “capacitation” for “motility”, “for” for “during”, “control. Sperm capacitation was assessed by evaluating sperm phosphotyrosine levels after 180 minutes incubation in Sperm Capacitation Medium (LifeGlobal Europe, Brussels, Belgium).” for “control.”
as §2

Human spermatozoa [3] = assay: Human spermatozoa DNA fragmentation after storage (Halosperm kit); conditions: 2 μg/mL, 37° C., 120 minutes storage
Protocol: as §1, with “5—Human” for “2—Human”, “DNA fragmentation” for “motility”, “for” for “during”, “control. DNA fragmentation was assessed using a Halosperm G2 kit (HALOTECH, Madrid, Spain).” for “control.”
as §2

Human spermatozoa [4] = assay: Human spermatozoa lipid peroxidation after storage (immunoblot); conditions: 2 μg/mL, 37° C., 120 minutes storage
Protocol: (§3) FIG. 6—Human spermatozoa oxidative damage to proteins (carbonylation) and lipids (peroxidation) after storage for 120 minutes at 37° C. Spermatozoa were stored in Sperm Preparation Medium (ORIGIO, Måløv, Denmark) not supplemented (Control) or supplemented with an mTOR activator (MHY 1485). Spermatozoa were also incubated with an mTOR inhibitor (Rapamycin; Rap) as a negative control. Protein carbonylation was assessed by immunobloting a specific @DNP antibody (SigmaAldrich, St. Louis, Mo., USA). Lipid peroxidation was assessed by immunobloting a specific @HNE antibody (Merck Millipore, Temecula, USA). […]
as §2

Human spermatozoa [5] = assay: Human spermatozoa viability after storage (eosin-nigrosin staining); conditions: 2 μg/mL in Sperm Preparation Medium, 37° C.
Protocol: as §1, with “1—Human” for “2—Human”, “viability” for “motility”, “control. Viability was assessed by the eosin-nigrosin staining method.” for “control.”
as §2

Human spermatozoa [6] = assay: Human spermatozoa metabolism during storage (glucose consumption, lactate production by 1H-NMR); conditions: 2 μg/mL, 37° C.
Protocol: as §1, with “3—Human” for “2—Human”, “metabolism during” for “motility after”, “for” for “during”, “control. Sperm glucose consumption and lactate production were assessed by 1H nuclear magnetic resonance.” for “control.”
We evaluated the use of an mTOR activator (MHY 1485) as an additive during sperm storage at 37° C. We added the mTOR activator (at a concentration of 2 μg/mL) to a commercial sperm storage medium (Sperm Preparation Medium®; Origio, Malay, Denmark) and stored the spermatozoa suspension (2 million spermatozoa per mL) in microtubes (at 37° C. in a 5% CO2 incubator) for up to 120 minutes, evaluating key parameters of quality and the degree of oxidative damages to those cells at regular intervals (0, 30 and 120 minutes). We assessed key sperm quality parameters, namely sperm viability and sperm motility, using standard methods, as described by the guidelines of the World Health Organization, with the supervision of a certified embryologist. We also evaluated the oxidative damages to sperm DNA (DNA fragmentation), proteins (protein carbonylation) and lipids (lipid peroxidation). Sperm DNA fragmentation was assessed using the Halosperm® kit (Halotech DNA SL, Madrid, Spain). Sperm protein carbonylation and lipid peroxidation were evaluated using specific antibodies (ABCAM®, Cambridge, USA) raised against 2,4-dinitrophenol groups and anti-4-hydroxynonenal groups (respectively). The metabolic alterations of spermatozoa were also evaluated by means of the proton magnetic resonance technique (1H-NMR), using a Varian 600 MHz spectrometer equipped with a 3 mm indirect detection probe with z-gradient (Varian, Palo Alto, USA). At the end of the storage, we evaluated the capacitation potential of the spermatozoa, by incubating the cells in a commercial medium (Lifeglobal®, Guilford, USA) and assessing the 3-nitrotyrosine levels using specific antibodies (ABCAM®, Cambridge, USA). An mTOR inhibitor (Rapamycin at a concentration of 0,1 μg/mL) was used as a negative control.

Human spermatozoa [7] = assay: Human spermatozoa protein carbonylation after storage (immunoblot); conditions: 2 μg/mL, 37° C., 120 minutes storage
Protocol: as §3, §2

With `O=[N+]([O-])c1ccc(Nc2nc(N3CCOCC3)nc(N3CCOCC3)n2)cc1` [MHY 1485] the spermatozoa motility (Human spermatozoa [1]; 120 minutes storage) was “sustaining a higher motility”, the spermatozoa motility (Human spermatozoa [1]; during storage) was “capable to maintain sperm motile” and the capacitation potential (Human spermatozoa [2]; 120 minutes storage) was “capable to preserve sperm viability and its capacitation potential”. For the same compound, the capacitation potential (Human spermatozoa [2]; during storage) was “sustain its capacitation potential”, the “sperm DNA integrity (DNA fragmentation)” value (Human spermatozoa [3]) was “DNA remaining fully intact” and the “lipid oxidative damage (lipid peroxidation)” value (Human spermatozoa [4]) was “not increased”. The “percentage of viable sperm” value (Human spermatozoa [5]; 30 minutes storage, vs time zero) was “maintained the percentage of viable sperm at similar levels as those of time zero”, the sperm viability (Human spermatozoa [5]; 120 minutes storage) was “capable to preserve sperm viability” and the consumption of hexoses (Human spermatozoa [6]; 30 minutes storage) was “no differences were observed”. The production of lactate (Human spermatozoa [6]; 30 minutes storage) was “no differences were observed”, the glucose consumption (Human spermatozoa [6]; 120 minutes storage) was “maintained” and the lactate production (Human spermatozoa [6]; 120 minutes storage) was “increased”. The “sperm protein oxidative damage (protein carbonylation)” value (Human spermatozoa [7]) was “not increased”.
